Assay results reported in ChEMBL document CHEMBL1201862, “PubChem BioAssay data set” (2004).
Calls of active or inactive are those of the source.

What was measured:
Vero [1] = assay: cells; format: functional; conditions: Chlorocebus sabaeus
[2] = molecular target: Induced myeloid leukemia cell differentiation protein Mcl-1 (Homo sapiens, UniProt Q07820); format: functional
SUMO-activating enzyme [3] = molecular target: T1, SUMO-activating enzyme (Homo sapiens, UniProt Q9UBT2); assay: blockers of UBC9-mediated SUMO conjugation – biochemical, AlphaScreen, SUMOylation inhibitor project, confirmation (AID 2018); format: functional
T1 sequence (Q9UBE0 whole entry): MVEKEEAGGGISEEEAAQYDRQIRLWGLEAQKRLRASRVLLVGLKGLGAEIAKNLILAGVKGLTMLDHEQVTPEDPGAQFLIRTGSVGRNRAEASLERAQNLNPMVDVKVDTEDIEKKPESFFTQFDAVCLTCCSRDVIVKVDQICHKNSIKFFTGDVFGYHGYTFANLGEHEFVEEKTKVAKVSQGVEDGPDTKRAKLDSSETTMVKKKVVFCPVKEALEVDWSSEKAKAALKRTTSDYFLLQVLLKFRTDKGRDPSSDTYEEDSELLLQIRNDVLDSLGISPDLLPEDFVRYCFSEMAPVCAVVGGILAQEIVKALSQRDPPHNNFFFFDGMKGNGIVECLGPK
T1 sequence (Q9UBT2 whole entry): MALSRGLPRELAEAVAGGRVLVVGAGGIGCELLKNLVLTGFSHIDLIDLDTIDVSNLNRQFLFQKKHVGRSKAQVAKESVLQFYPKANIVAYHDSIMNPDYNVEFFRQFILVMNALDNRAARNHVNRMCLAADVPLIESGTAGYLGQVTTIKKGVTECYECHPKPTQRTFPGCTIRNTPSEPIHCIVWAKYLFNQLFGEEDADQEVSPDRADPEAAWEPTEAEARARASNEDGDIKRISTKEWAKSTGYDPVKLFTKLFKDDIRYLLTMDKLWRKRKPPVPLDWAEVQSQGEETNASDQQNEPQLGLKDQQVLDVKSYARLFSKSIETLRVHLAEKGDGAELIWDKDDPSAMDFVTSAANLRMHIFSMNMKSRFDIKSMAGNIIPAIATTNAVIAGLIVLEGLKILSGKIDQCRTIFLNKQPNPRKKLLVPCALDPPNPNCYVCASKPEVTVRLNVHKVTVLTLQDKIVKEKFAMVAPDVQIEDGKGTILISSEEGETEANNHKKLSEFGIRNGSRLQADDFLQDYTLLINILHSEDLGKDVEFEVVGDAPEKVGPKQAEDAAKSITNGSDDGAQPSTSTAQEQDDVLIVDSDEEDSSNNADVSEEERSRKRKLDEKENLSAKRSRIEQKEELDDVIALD

Genome polyprotein = Genome polyprotein (dengue virus type 2, UniProt P29990); assay: flavivirus cap methylation enzyme inhibition – biochemical, confirmation dose response, primary screen (AID 588689); format: functional
SUMO-activating enzyme [4] = molecular target: T1, SUMO-activating enzyme; assay: blockers of SAE1/SAE2–UBC9 SUMO transfer – biochemical, HTRF, uHTS, primary screen (AID 2006); format: protein-complex assay
[5] = molecular target: T2, Microphthalmia-associated transcription factor (Homo sapiens, UniProt O75030); assay: reducers of TRPM1 reporter luminescence, concentration series – cell-based, SK-MEL-5, cherry-picked, set 3, MITF inhibitor project, dose response (AID 493073); format: functional;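 also: SK-MEL-5 melanoma cells with luciferase driven by the MITF target TRPM1 promoter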
T2 sequence (O75030 whole entry): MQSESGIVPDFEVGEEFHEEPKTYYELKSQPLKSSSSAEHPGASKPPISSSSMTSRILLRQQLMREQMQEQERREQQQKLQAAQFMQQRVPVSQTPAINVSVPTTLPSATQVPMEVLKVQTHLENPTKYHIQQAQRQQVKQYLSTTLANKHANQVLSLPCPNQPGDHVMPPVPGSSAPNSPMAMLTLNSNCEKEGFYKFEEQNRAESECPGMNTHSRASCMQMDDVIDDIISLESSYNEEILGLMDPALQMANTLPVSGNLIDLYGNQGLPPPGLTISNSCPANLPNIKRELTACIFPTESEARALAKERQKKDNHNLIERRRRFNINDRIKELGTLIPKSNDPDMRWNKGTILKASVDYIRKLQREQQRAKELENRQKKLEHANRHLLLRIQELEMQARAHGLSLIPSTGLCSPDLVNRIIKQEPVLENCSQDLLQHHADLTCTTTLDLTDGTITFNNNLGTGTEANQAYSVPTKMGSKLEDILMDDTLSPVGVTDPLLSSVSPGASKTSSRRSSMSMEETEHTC

Large T antigen = Large T antigen (Simian virus 40, UniProt P03070); format: functional, Betapolyomavirus macacae;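 also: Confirmatory-stage PubChem screen for compounds that inhibit SV40 T antigen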
Sequence of Large T antigen (P03070 whole entry): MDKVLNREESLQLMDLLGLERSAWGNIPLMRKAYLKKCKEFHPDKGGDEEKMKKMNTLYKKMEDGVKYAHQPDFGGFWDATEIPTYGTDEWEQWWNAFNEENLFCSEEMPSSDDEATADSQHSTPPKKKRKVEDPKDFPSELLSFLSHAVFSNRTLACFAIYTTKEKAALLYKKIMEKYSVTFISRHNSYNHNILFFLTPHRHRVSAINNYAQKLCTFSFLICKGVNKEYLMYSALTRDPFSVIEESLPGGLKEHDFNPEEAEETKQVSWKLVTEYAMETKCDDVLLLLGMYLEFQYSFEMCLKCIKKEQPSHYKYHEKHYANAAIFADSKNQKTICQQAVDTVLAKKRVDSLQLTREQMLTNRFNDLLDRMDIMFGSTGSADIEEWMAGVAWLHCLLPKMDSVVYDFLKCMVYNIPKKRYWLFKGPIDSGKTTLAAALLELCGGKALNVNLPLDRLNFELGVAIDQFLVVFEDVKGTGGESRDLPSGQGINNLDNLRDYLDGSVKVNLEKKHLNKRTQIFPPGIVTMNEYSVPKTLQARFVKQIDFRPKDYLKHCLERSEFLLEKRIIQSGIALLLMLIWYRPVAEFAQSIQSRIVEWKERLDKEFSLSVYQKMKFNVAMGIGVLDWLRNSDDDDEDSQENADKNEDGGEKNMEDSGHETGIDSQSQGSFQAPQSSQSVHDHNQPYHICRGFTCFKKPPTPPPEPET

[6] = molecular target: DNA (cytosine-5)-methyltransferase 1 (Homo sapiens, UniProt P26358); assay: inhibition of DNA methylation by DNMT1 – biochemical, fluorescent molecular beacon, confirmation (AID 602386); format: functional
Vero [7] = assay: viability of Vero cells under compound – cytotoxicity control for flavivirus capping enzyme inhibitors (AID 588742); format: functional; conditions: Chlorocebus sabaeus
[8] = molecular target: T3, Heat shock factor protein 1 (Mus musculus, UniProt P38532); assay: enhancement of HSF1-driven luciferase signal – cell-based, NIH3T3, luminescence, dose retest, confirmation (AID 435004); format: functional;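 also: stress induced by proteasome inhibitor MG132 added 30 min after compound; luciferase reporter driven by HSF1 response element in NIH3T3 cells; actives raise luminescence as potentiators of the MG132 stress response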
T3 sequence (P38532 whole entry): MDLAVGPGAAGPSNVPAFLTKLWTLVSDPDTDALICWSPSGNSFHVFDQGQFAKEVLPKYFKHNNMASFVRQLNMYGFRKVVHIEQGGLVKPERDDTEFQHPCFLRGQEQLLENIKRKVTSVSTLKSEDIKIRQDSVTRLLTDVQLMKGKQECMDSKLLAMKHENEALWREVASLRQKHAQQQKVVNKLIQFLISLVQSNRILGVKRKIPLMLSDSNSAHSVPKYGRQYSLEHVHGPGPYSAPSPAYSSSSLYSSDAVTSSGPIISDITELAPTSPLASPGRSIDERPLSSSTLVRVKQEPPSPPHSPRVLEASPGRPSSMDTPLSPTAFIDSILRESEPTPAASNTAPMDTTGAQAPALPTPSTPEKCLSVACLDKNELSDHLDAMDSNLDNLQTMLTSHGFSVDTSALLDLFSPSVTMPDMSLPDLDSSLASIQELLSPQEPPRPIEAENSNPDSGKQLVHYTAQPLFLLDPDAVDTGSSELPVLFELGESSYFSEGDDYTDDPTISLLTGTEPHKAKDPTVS

HEK293 [9] = assay: cells; conditions: Homo sapiens
HEK293 [10] = assay: cells; conditions: Homo sapiens; remark: listed apart in the source
Phosphomannomutase 2 = Phosphomannomutase 2 (Homo sapiens, UniProt O15305); assay: Counter screen SAR assay for PMM2 inhibitors via a fluorescence intensity assay. [Related pubchem assays (depositor defined):AID1545, AID1574]
Sequence of Phosphomannomutase 2 (O15305 whole entry): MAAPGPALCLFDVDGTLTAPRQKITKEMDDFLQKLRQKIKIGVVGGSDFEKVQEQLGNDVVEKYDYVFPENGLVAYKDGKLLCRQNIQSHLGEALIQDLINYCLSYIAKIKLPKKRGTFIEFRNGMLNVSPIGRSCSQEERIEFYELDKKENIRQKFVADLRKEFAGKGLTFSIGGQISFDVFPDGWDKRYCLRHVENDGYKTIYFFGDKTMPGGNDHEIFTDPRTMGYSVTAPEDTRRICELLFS

[11] = molecular target: T4, Mannose-6-phosphate isomerase (Homo sapiens, UniProt P34949); assay: MPI enzyme activity inhibition – biochemical, fluorescence intensity, coupled assay, primary screen (AID 1209)
T4 sequence (P34949 whole entry): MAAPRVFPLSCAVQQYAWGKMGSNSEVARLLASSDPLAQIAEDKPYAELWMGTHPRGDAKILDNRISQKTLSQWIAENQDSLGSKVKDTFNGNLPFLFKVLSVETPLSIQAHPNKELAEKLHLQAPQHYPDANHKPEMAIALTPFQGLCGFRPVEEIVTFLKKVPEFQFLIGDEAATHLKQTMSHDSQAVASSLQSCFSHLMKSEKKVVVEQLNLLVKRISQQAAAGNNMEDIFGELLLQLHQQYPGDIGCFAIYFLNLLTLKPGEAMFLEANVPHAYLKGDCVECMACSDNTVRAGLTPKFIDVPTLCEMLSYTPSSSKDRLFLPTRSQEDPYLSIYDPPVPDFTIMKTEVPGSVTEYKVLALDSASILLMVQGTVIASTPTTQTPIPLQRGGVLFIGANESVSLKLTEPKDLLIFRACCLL

[12] = molecular target: T4, Mannose-6-phosphate isomerase; assay: phosphomannose isomerase inhibition – biochemical, fluorescence intensity, confirmation (AID 1535)
[13] = molecular target: Peroxisome proliferator-activated receptor gamma/Nuclear receptor coactivator 3 (Homo sapiens, UniProt P37231); assay: (§1) TR-FRET dose response biochemical High Throughput Screening assay for agonists of the steroid receptor coactivator 3 (SRC-3) recruitment by the peroxisome proliferator-activated receptor gamma (PPAR gamma): non-selective agonists. [Related pubchem assays: 1301 (Confirmation screen.), 1048 (Primary screen.)]; format: functional
[14] = molecular target: Peroxisome proliferator-activated receptor gamma/Nuclear receptor coactivator 1 (Homo sapiens, UniProt P37231); assay: as §1, with “1 (SRC-1)” for “3 (SRC-3)”, “assays (depositor defined):AID1300, AID1808, AID504735, AID631]” for “assays: 1301 (Confirmation screen.), 1048 (Primary screen.)]”; format: protein assay
[15] = molecular target: Peroxisome proliferator-activated receptor gamma/Nuclear receptor coactivator 2 (Homo sapiens, UniProt P37231); assay: TR-FRET dose response biochemical High Throughput Screening assay for agonists of the steroid receptor coactivator 2 (SRC-2) recruitment by the peroxisome proliferator-activated receptor gamma (PPAR gamma): non-selective agonists. [Related pubchem assays: 1297, 1032 ]; format: functional
Protein skinhead-1 = molecular target: T5, Protein skinhead-1 (Caenorhabditis elegans, UniProt P34707); format: functional
T5 sequence (P34707 whole entry): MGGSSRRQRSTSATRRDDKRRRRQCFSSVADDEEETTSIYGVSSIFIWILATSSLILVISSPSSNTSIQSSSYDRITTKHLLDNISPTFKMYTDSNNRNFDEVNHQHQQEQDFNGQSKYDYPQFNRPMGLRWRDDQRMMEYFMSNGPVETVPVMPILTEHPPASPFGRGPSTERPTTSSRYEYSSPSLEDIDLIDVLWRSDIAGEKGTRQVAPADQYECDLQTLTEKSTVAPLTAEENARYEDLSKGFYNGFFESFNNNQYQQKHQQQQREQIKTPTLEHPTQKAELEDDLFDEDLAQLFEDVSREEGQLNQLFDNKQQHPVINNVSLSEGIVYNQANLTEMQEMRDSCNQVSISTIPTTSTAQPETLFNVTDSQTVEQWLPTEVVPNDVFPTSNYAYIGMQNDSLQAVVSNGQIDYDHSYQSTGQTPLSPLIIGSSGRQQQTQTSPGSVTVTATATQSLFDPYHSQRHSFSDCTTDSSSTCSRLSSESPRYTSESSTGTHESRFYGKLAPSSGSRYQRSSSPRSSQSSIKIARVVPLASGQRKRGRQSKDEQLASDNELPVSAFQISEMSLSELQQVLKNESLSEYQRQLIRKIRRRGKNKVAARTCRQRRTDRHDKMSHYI

[16] = molecular target: UDP-galactopyranose mutase (Mycobacterium tuberculosis, UniProt P9WIQ1); assay: Inhibitors of Mycobacterium tuberculosis UDP-galactopyranose mutase (UGM) enzyme Measured in Biochemical System Using Plate Reader - 2105-02_Inhibitor_Dose_CherryPick_Activity. [Related pubchem assays (depositor defined):AID504439]
Sequence of UDP-galactopyranose mutase (P9WIQ1 whole entry): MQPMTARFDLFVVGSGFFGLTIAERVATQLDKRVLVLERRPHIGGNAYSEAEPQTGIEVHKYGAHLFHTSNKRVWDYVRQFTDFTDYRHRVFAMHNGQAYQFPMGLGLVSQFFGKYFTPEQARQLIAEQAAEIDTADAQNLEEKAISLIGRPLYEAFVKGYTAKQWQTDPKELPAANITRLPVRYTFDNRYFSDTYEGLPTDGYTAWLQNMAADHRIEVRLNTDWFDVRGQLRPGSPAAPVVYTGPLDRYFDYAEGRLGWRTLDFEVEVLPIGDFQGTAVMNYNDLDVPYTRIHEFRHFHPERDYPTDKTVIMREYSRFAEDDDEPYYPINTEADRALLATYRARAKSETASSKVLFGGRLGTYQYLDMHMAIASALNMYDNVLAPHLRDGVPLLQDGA

[17] = molecular target: Lysine-specific demethylase 4C (Homo sapiens, UniProt Q9H3R0); assay: inhibition of JMJD2C H3K9me3 demethylation – biochemical, DELFIA europium, cherry-picked samples, dose response (AID 488835); format: functional
Sequence of Lysine-specific demethylase 4C (Q9H3R0 whole entry, the tested form may be a part): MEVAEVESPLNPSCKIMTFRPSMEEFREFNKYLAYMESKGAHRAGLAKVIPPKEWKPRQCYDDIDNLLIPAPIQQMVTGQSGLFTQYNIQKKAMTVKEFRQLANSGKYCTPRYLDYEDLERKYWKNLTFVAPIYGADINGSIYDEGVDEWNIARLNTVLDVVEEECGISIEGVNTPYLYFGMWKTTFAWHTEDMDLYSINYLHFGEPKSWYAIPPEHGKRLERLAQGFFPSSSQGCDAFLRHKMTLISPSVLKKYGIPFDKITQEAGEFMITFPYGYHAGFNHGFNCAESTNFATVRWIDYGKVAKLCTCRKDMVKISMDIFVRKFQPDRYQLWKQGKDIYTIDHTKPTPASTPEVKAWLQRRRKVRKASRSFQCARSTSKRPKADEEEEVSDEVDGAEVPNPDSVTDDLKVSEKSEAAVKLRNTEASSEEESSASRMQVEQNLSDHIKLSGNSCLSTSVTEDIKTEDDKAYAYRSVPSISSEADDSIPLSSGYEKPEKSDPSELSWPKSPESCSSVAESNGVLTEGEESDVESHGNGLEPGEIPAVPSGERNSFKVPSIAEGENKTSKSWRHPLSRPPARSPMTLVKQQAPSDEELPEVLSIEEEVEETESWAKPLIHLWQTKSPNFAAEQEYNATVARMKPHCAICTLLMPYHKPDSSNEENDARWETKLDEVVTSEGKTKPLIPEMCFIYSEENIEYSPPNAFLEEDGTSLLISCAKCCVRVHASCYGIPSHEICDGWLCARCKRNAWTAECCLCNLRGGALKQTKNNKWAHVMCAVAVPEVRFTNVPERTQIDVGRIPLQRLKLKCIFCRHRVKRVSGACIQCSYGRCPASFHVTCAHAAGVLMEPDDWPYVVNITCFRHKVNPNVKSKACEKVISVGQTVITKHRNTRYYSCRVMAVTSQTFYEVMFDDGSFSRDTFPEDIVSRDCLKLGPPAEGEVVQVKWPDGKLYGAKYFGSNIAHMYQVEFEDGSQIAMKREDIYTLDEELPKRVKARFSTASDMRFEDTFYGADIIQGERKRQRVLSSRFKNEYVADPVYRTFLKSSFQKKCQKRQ

[18] = molecular target: Hepatocyte nuclear factor 4-alpha (Homo sapiens, UniProt P41235); format: functional, cell-based;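 also: biochemical luminescence-based dose-response counterscreen measuring inhibition of HNF4 dimerization, run alongside a screen for blockers of ABHD5–perilipin-5 interaction; split luciferase complementation of HNF4 fusion proteins in cell lysate measuring dimerization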
Sequence of Hepatocyte nuclear factor 4-alpha (P41235 whole entry, the tested form may be a part): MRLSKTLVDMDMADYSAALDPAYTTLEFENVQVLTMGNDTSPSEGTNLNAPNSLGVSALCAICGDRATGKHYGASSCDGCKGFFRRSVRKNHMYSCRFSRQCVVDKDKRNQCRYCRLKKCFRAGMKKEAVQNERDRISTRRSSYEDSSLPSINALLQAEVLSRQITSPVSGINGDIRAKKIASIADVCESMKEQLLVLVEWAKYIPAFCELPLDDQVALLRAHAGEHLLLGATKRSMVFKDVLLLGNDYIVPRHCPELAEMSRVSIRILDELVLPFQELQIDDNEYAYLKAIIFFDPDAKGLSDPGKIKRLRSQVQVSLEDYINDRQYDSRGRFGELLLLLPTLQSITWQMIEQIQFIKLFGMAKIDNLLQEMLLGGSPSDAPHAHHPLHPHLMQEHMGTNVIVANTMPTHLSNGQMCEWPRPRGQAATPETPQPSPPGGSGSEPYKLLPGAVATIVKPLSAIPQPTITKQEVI

[19] = viability loss in THP-1 monocytes – THP-1 cells, cytotoxicity control for Vif-APOBEC3G degradation inhibitor project, dose response (AID 1117359); format: functional; conditions: THP-1
[20] = toxicity toward cultured mammalian cells – cell-based, plate reader, cherry-pick samples, cytotoxicity control, dose response (AID 504397); format: functional

Sequence of Induced myeloid leukemia cell differentiation protein Mcl-1 (Q07820 whole entry): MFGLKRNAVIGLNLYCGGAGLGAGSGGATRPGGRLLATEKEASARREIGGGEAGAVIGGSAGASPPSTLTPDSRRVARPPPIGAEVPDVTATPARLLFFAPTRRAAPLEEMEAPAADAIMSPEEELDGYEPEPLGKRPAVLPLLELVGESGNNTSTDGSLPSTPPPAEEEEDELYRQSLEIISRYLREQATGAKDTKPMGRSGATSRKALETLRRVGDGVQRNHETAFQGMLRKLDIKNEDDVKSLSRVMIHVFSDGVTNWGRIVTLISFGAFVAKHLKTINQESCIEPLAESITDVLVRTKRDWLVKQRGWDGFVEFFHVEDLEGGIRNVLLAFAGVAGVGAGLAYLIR

O=C1NC(=S)NC(=O)C1=Cc1cccn1-c1ccc(O)cc1
CC50 (Vero [1]): 23 µM (active) | IC50 [2]: 4.45 µM (active) | IC50 (SUMO-activating enzyme [3]): 7.4 µM (active) | IC50 (Genome polyprotein): 34.2 µM (active) | IC50 (SUMO-activating enzyme [4]): 21.9 µM (active) | AC50 [5]: 11.4 µM (active) | IC50 (Large T antigen): 30.3 µM (active) | IC50 [6]: 4.82 µM (active) | CC50 (Vero [7]): 34.8 µM (active) | EC50 [8]: 10.6 µM (active)

CN(C)C(=S)N=c1ssc(=S)n1Cc1ccccc1
EC50 (HEK293 [9]): > 59.7 µM (inactive) | EC50 (HEK293 [10]): > 59.7 µM (inactive)

Cc1cc2n(n1)SC(Nc1ccc(F)c(Cl)c1)N2 (stereo not given)
IC50 (Phosphomannomutase 2): > 100 µM (inactive) | IC50 [11]: > 50 µM (not active) | IC50 [12]: > 50 µM (inactive)

Brc1cc(Br)c2nc(-c3cccs3)ccc2c1
EC50 [13]: 47.9 µM (not active) | EC50 [14]: 34.7 µM (inactive) | EC50 [15]: 30 µM (not active) | IC50 (Protein skinhead-1): > 100 µM (inactive)

COc1ccccc1N1C(=O)C2C(C(=O)c3ccccc3)=NN(c3ccc(Br)cc3)C2C1=O (stereo not given)
AC50 [16]: 265 µM (active)

O=C1NC(=O)N(Cc2ccc(F)cc2)C(=O)/C1=C\C=C\c1ccco1
AC50 [17]: 7.02 µM (active) | IC50 [18]: 1.87 µM (active) | AC50 [5]: 6.63 µM (active) | CC50 [19]: 28.9 µM (active)

Cc1oc(-c2cccs2)nc1CSCC(=O)N1CCC2(CC1)OCCO2
AC50 [20]: 256 µM (active)
